Tested on: chloroquine-resistant Plasmodium falciparum strain (D10R)
Test: In vitro anti-malaria assay (Malstat, lactate dehydrogenase)
Assay type: cell-based
Conditions: read-out: IC50(chloroquine)
Method: In separate experiments, tyrocidine/tryptocidines conjugated to polymers 11 and 12, respectively, were administered at varying concentrations to blood samples containing cells infected with a chloroquine-resistant Plasmodium falciparum strain (D10 resistant mutant denoted D10R, IC50(chloroquine)>100 nM). For comparison purposes, the unconjugated/unmodified natural tyrocidine/tryptocidine mixture was also administered to blood infected with the same chloroquin-resistant malaria strain. FIGS. 16 and 17 show the antimalaria activity and the haemolytic activity of the tyrocidine/tryptocidine-PVP conjugates in comparison with the natural cyclodecapetide mixture. […]
P. falciparum (D10 strain) was cultured and dose-response assays were performed as previously described.^9 Briefly, parasites were cultured under an atmosphere of 3% CO2, 4% O2 and 93% N2 in RPMI-1640 media, supplemented with 25 mM HEPES, 50 mM glucose, 0.65 mM hypoxanthine, 0.048 mg/mL gentamicin, 0.2% (w/v) NaHCO3, 0.5% (w/v) Albumax II and 2% fresh human O^+ erythrocytes obtained from anonymous donors from the Western Cape Blood Blank. […] A 10 μL aliquot from each well was diluted to 100 μL with phosphate buffered saline and analysed at 405 nm, on a plate reader, to determine the quantity of released haemoglobin and haemolytic activity of the conjugates. […]

CCN(CC)CCCC(C)Nc1ccnc2cc(Cl)ccc12 (stereo not shown) [chloroquine]
IC50: > 100 nM

Source: patent US10479854B2, “Conjugate for treating malaria” (priority 2014, dated 2019)
